Laboratory results reported in ChEMBL document CHEMBL3860110, “First Structure-Activity Relationship of 17β-Hydroxysteroid Dehydrogenase Type 14 Nonsteroidal Inhibitors and Crystal Structures in Complex with the Enzyme” (J Med Chem, 2016).

Experiments:
[1] = Dissociation constant, pKa of the compound at OH/C-ring; type: physicochemical
[2] = target: T1, 17-beta-hydroxysteroid dehydrogenase type 2 (Homo sapiens, UniProt P37059); test: Inhibition of purified human placental microsomal 17beta-HSD2 using [3H]-E2 substrate and NAD+ by HPLC based radioactive […] assay
T1 sequence (P37059 whole entry): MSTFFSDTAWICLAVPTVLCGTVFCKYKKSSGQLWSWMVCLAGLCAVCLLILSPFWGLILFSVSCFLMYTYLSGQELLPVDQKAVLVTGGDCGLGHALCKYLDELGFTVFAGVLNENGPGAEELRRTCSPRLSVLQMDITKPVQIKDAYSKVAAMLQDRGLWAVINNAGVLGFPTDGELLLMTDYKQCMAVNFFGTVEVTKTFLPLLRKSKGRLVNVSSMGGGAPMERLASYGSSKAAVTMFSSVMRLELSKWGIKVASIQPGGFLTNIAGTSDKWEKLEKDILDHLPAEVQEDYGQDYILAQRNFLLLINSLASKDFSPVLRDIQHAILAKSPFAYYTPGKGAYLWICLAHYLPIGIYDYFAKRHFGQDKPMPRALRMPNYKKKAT

[3] = target: T2, 17-beta-hydroxysteroid dehydrogenase 14 (Homo sapiens) (UniProt Q9BPX1); test: Inhibition of N-terminal 6His-tagged human HSD17B14 expressed in Escherichia coli BL21 (DE3) pLysS at 22.2 uM using E2 substrate and NAD+ incubated for 2 hrs using purified enzyme by fluorimetric assay
T2 sequence (whole entry): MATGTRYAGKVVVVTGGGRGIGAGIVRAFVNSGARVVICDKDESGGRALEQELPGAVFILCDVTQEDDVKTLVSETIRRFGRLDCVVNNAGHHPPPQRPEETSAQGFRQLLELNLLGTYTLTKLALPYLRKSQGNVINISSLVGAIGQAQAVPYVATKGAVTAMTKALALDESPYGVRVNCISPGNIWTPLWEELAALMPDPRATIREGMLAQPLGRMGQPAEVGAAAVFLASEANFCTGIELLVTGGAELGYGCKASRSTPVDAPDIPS

Row | SMILES | pKa [1] | further results
1 | O=C(c1cccc(O)c1)c1cccc(-c2ccc(O)c(F)c2)n1 | 8.8 | 
2 | O=C(c1ccc(F)c(O)c1)c1cccc(-c2ccc(O)c(F)c2)n1 | 7.8 | 
3 | Cc1cc(-c2ccc(C(=O)c3ccc(F)c(O)c3)cc2)ccc1O |  | IC50 [2]: 40 nM
4 | COc1ccc(-c2ccc(C(=O)c3ccc(F)c(OC)c3)nc2)cc1F |  | inhibition [3]: 57%
